Measurements taken from publication PMC9467586, “Development of novel 9-O-substituted-13-octylberberine derivatives as potential anti-hepatocellular carcinoma agents” (Journal of Enzyme Inhibition and Medicinal Chemistry, 2022).
Where two headings read alike, the source gives them in different places.

Key:
HepG2 cells = assay: In vitro antiproliferative MTT assay, HepG2 cells; type: cell-based, human; conditions: 72 h, mean ± SD (n = 3), read-out: IC50 (antiproliferative activity against HepG2 cells)
Procedure: (§1) HepG2, Sk-Hep-1, Huh-7, Hep3B and L-02 cells were purchased from Nanjing Key Gen Biotech Co. Ltd. (Nanjing, China). The cytotoxicity of test compounds was determined using an MTT assay. Briefly, the cell lines were incubated at 37 °C in a humidified 5% CO2 incubator for 24 h in 96-microwell plates. After medium removal, 100 μL of culture medium with 0.1% DMSO containing test compounds at different concentrations was added to each well and incubated at 37 °C for another 72 h. The MTT (5 mg/mL in PBS) was added and incubated for another 4 h, the optical density was detected with a microplate reader at 490 nm. The IC50 values were calculated according to the dose-dependent curves. All the experiments were repeated in at least three independent experiments.

Sk-Hep-1 cells = assay: In vitro antiproliferative MTT assay, Sk-Hep-1 cells; type: cell-based, human; conditions: 72 h, mean ± SD (n = 3)
Procedure: as §1

Huh-7 cells = assay: In vitro antiproliferative MTT assay, Huh-7 cells; type: cell-based, human; conditions: 72 h, mean ± SD (n = 3)
Procedure: as §1

Hep3B cells = assay: In vitro antiproliferative MTT assay, Hep3B cells; type: cell-based, human; conditions: 72 h, mean ± SD (n = 3)
Procedure: as §1

normal hepatocytes L-02 = assay: MTT cytotoxicity assay, normal hepatocytes L-02; type: cell-based; conditions: normal hepatocytes L-02, MTT, 72 h, mean ± SD (n = 3)
Procedure: as §1

[1] = system: H22 liver cancer xenograft; assay: In vivo anti-HCC assay, H22 liver cancer xenograft mouse model; set-up: species or system mice; conditions: 20 mg/kg, intravenous, once a day for 21 days, H22 mice
Procedure: Five-week-old male Institute of Cancer Research (ICR) mice were purchased from Shanghai SLAC Laboratory Animals Co. Ltd. Briefly, a total of 1 × 10^6 H22 cells were subcutaneously inoculated into the right flank of ICR mice according to protocols of tumour transplant research, to initiate tumour growth. After incubation for one day, mice were weighed and randomly divided into 5 groups of 8 animals. The groups were administered berberine (30 mg/kg) and 6k (15 or 30 mg/kg) in a vehicle of 10% DMF/2% Tween 80/88% saline, respectively. Vehicle and cyclophosphamide (20 mg/kg) were employed as negative and positive controls, respectively. Treatments were performed by intravenous injection once per day for a total of 21 consecutive days. Body weights and tumour volumes were measured every 2 days. The mice were sacrificed after the treatments, and the tumours were excised and weighed. The tumour volume and inhibition rate (w/w) were calculated as follows: tumour volume = L × W^2/2, where L is the length and W is the width; tumour inhibitory ratio (%) = (1-average tumour weight of treated group/average tumour weight of control group) × 100%. All procedures were performed following institutional approval in accordance with the NIH Guide for the Care and Use of Laboratory Animals.

IC50 (HepG2 cells; Homo sapiens) [µM]	melting point [°C]	SMILES	further results
		N.N.[Cl][Pt][Cl] [Cisplatin]	IC50 (HepG2 cells): 6.87 ± 0.31 µM; IC50 (Sk-Hep-1 cells): 6.52 ± 0.42 µM; IC50 (Huh-7 cells): 3.03 ± 0.63 µM; IC50 (Hep3B cells): 11.2 ± 0.51 µM; IC50 (normal hepatocytes L-02): 6.79 ± 0.46 µM
1.64 ± 0.13	132 to 134	CCCCCCCCc1c2[n+](cc3c(OCCCCCCN4CCCCC4)c(OC)ccc13)CCc1cc3c(cc1-2)OCO3.[Br-] [Compound 6g, 10-Methoxy-13-octyl-9-((6-(piperidin-1-yl)hexyl)oxy)-5,6-dihydro-[1,3]dioxolo[4,5-g]isoquinolino[3,2-a]isoquinolin-7-ium bromide]	
4.45 ± 0.34		CCCCCCCCCCc1c2[n+](cc3c(OC)c(OC)ccc13)CCc1cc3c(cc1-2)OCO3 [Compound 3d, 13-Decyl-9,10-dimethoxy-5,6-dihydro-[1,3]dioxolo[4,5-g]isoquinolino[3,2-a]isoquinolin-7-ium chloride]	
6.82 ± 0.51	142 to 144	CCCCCCCCc1c2[n+](cc3c(OCCCN(CC)CC)c(OC)ccc13)CCc1cc3c(cc1-2)OCO3.[Br-] [Compound 6a, 9–(3-(Diethylamino)propoxy)-10-methoxy-13-octyl-5,6-dihydro-[1,3]dioxolo[4,5-g]isoquinolino[3,2-a]isoquinolin-7-ium bromide]	
4.24 ± 0.44		CCCCCCCCCCCCc1c2[n+](cc3c(OC)c(OC)ccc13)CCc1cc3c(cc1-2)OCO3 [Compound 3e, 13-Dodecyl-9,10-dimethoxy-5,6-dihydro-[1,3]dioxolo[4,5-g]isoquinolino[3,2-a]isoquinolin-7-ium chloride]	
0.81 ± 0.08	147 to 149	CCCCCCCCc1c2[n+](cc3c(OCCCCCCCCN4CCOCC4)c(OC)ccc13)CCc1cc3c(cc1-2)OCO3.[Br-] [Compound 6i, 10-Methoxy-9-((8-morpholinooctyl)oxy)-13-octyl-5,6-dihydro-[1,3]dioxolo[4,5-g]isoquinolino[3,2-a]isoquinolin-7-ium bromide]	
6.14 ± 0.57		CCCCCCc1c2[n+](cc3c(OC)c(OC)ccc13)CCc1cc3c(cc1-2)OCO3 [Compound 3b, 13-Hexyl-9,10-dimethoxy-5,6-dihydro-[1,3]dioxolo[4,5-g]isoquinolino[3,2-a]isoquinolin-7-ium chloride]	
1.28 ± 0.11	135 to 137	CCCCCCCCc1c2[n+](cc3c(OCCCCCCCCCCN4CCOCC4)c(OC)ccc13)CCc1cc3c(cc1-2)OCO3.[Br-] [Compound 6l, 10-Methoxy-9-((10-morpholinodecyl)oxy)-13-octyl-5,6-dihydro-[1,3]dioxolo[4,5-g]isoquinolino[3,2-a]isoquinolin-7-ium bromide]	
1.27 ± 0.25	164 to 166	CCCCCCCCc1c2[n+](cc3c(OCCCCCCN4CCOCC4)c(OC)ccc13)CCc1cc3c(cc1-2)OCO3.[Br-] [Compound 6f, 10-Methoxy-9-((6-morpholinohexyl)oxy)-13-octyl-5,6-dihydro-[1,3]dioxolo[4,5-g]isoquinolino[3,2-a]isoquinolin-7-ium bromide]	
1 ± 0.1	144 to 146	CCCCCCCCc1c2[n+](cc3c(OCCCCCCCCN4CCCCC4)c(OC)ccc13)CCc1cc3c(cc1-2)OCO3.[Br-] [Compound 6j, 10-Methoxy-13-octyl-9-((8-(piperidin-1-yl)octyl)oxy)-5,6-dihydro-[1,3]dioxolo[4,5-g]isoquinolino[3,2-a]isoquinolin-7-ium bromide]	
6.25 ± 0.56	167 to 169	CCCCCCCCc1c2[n+](cc3c(OCCCN4CCOCC4)c(OC)ccc13)CCc1cc3c(cc1-2)OCO3.[Br-] [Compound 6c, 10-Methoxy-9–(3-morpholinopropoxy)-13-octyl-5,6-dihydro-[1,3]dioxolo[4,5-g]isoquinolino[3,2-a]isoquinolin-7-ium bromide]	
		O=P1(N(CCCl)CCCl)NCCCO1 (stereo not drawn) [CP, cyclophosphamide, reference compound]	tumour inhibitory rate (TIR, w/w) [1]: 64.2%
> 50		COc1ccc2c(Cc3ccccc3)c3[n+](cc2c1OC)CCc1cc2c(cc1-3)OCO2 [Compound 3a, 13-Benzyl-9,10-dimethoxy-5,6-dihydro-[1,3]dioxolo[4,5-g]isoquinolino[3,2-a]isoquinolin-7-ium bromide]	
4.75 ± 0.24	149 to 151	CCCCCCCCc1c2[n+](cc3c(OCCCCCCN(CC)CC)c(OC)ccc13)CCc1cc3c(cc1-2)OCO3.[Br-] [Compound 6d, 9-((6-(Diethylamino)hexyl)oxy)-10-methoxy-13-octyl-5,6-dihydro-[1,3]dioxolo[4,5-g]isoquinolino[3,2-a]isoquinolin-7-ium bromide]	
1.44 ± 0.13	142 to 144	CCCCCCCCc1c2[n+](cc3c(OCCCCCCCCCCN4CCCCC4)c(OC)ccc13)CCc1cc3c(cc1-2)OCO3.[Br-] [Compound 6m, 10-Methoxy-13-octyl-9-((10-(piperidin-1-yl)decyl)oxy)-5,6-dihydro-[1,3]dioxolo[4,5-g]isoquinolino[3,2-a]isoquinolin-7-ium bromide]	
3.91 ± 0.36	126 to 128	CCCCCCCCc1c2[n+](cc3c(OCCCCCCN4CCCC4)c(OC)ccc13)CCc1cc3c(cc1-2)OCO3.[Br-] [Compound 6e, 10-Methoxy-13-octyl-9-((6-(pyrrolidin-1-yl)hexyl)oxy)-5,6-dihydro-[1,3]dioxolo[4,5-g]isoquinolino[3,2-a]isoquinolin-7-ium bromide]	
1.08 ± 0.1	136 to 138	CCCCCCCCc1c2[n+](cc3c(OCCCCCCCCCCN4CCN(C)CC4)c(OC)ccc13)CCc1cc3c(cc1-2)OCO3.[Br-] [Compound 6n, 10-Methoxy-9-((10–(4-methylpiperazin-1-yl)decyl)oxy)-13-octyl-5,6-dihydro-[1,3]dioxolo[4,5-g]isoquinolino[3,2-a]isoquinolin-7-ium bromide]	
7.75 ± 0.83	135 to 137	CCCCCCCCc1c2[n+](cc3c(OCCCN4CCCC4)c(OC)ccc13)CCc1cc3c(cc1-2)OCO3.[Br-] [Compound 6b, 10-Methoxy-13-octyl-9–(3-(pyrrolidin-1-yl)propoxy)-5,6-dihydro-[1,3]dioxolo[4,5-g]isoquinolino[3,2-a]isoquinolin-7-ium bromide]	
1.47 ± 0.19	165 to 167	CCCCCCCCc1c2[n+](cc3c(OCCCCCCN4CCN(C)CC4)c(OC)ccc13)CCc1cc3c(cc1-2)OCO3.[Br-] [Compound 6h, 10-Methoxy-9-((6–(4-methylpiperazin-1-yl)hexyl)oxy)-13-octyl-5,6-dihydro-[1,3]dioxolo[4,5-g]isoquinolino[3,2-a]isoquinolin-7-ium bromide]	
